Data from patent publication US20190002452A1 (GUANGZHOU HENOVCOM BIOSCIENCE CO., LTD, priority 2016, published 2019).

biological target: T1, human farnesol receptor protein hFXR (Homo sapiens, UniProt Q96RI1); experiment: AlphaScreen assay of FXR agonist activity in vitro: effect on binding between human farnesol receptor protein and its coactivator (SRC1-2); type: biochemical; conditions: hFXR 100 nM, peptide bSRC1-2 50 nM, 2 hr incubation at room temperature
T1 construct: hexahistidine (His6)
T1 sequence (Q96RI1 1-486): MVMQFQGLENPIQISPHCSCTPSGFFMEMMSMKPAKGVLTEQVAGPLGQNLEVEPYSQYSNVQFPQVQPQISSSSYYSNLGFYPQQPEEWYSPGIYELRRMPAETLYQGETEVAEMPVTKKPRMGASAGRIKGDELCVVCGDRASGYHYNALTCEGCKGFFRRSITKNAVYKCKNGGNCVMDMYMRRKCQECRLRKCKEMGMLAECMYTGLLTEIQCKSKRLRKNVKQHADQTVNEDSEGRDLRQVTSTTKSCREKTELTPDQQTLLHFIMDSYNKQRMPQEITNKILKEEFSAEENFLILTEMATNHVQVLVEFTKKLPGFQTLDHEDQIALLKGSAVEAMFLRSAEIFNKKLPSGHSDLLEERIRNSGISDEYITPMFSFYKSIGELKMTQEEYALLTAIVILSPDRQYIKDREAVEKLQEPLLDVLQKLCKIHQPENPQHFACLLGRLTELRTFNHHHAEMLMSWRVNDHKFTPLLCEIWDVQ
Experimental: FXR agonist activity in vitro for the chemicals prepared in the above examples is measured.
AlphaScreen-based assays are performed with a hexahistidine detection kit manufactured by Perkins-Elmer, for measuring the effect of chemical compounds on the binding between human farnesol receptor protein and its coactivator (SRC1-2), the method is shown as follows:
1) Preparing a mixture comprising human farnesol receptor protein hFXR (100 nM, 15 μL/well), peptide bSRC1-2 (50 nM, 15 μL/well), 10× AlphaScreen buffer solution (15 μL/well and DI water (60 μL/well), and then transferring 105 μL/well of the mixture to a 96-well plate; 2) Diluting the chemicals prepared in the above examples by twice gradient 12×, with 15 μL/well; 3) Adding donor beads and acceptor beads, 30 μL/well in total; (attention: the beads are light-sensitive) 4) Incubating in dark at room temperature for 2 hr; 5) Transferring 40 μL/well of the mixture to a 384-well plate with 3 replicates, and then centrifuging at 1000 rpm for 1 min, to make liquid mixed well underneath the wells. (attention: photopathic operation); 6) In a dark room, reading the plate (by Homogeneous luminescent immunoassay system) to obtain EC50 with a GraphPad Prism5 software.

Row | Compound | EC50 [nM]
1 | O=C(O)c1ccc(N2CCC3(CC(OCc4c(-c5c(Cl)cccc5Cl)noc4C4CC4)C3)C2)nn1 (centres unmarked) [Example 46, 6-(2-((5-cyclopropyl-3-(2,6-dichlorophenyl)isoxazol-4-yl)methoxy)-6-azaspiro[3.4]octan-6-yl) pyridazine-3-carboxylic Acid] | < 100
2 | O=C(O)c1ccc2nc(N3CC4CCC(C3)C4OCc3c(-c4c(Cl)cccc4Cl)noc3C3CC3)sc2c1 (centres unmarked) [Example 6, 2-(8-((5-cyclopropyl-3-(2,6-dichlorophenyl)isoxazol-4-yl)methoxy)-3-azabicyclo[3.2.1]octan-3-yl)benzo[d]thiazole-6-carboxylic Acid] | 100 to 1000
3 | COc1cc(C(=O)O)cc2sc(N3CCC4(CC(OCc5c(-c6c(Cl)cccc6Cl)noc5C5CC5)C4)C3)nc12 (centres unmarked) [Example 12, 2-(2-((5-cyclopropyl-3-(2,6-dichlorophenyl)isoxazol-4-yl)methoxy)-6-azaspiro[3.4]octan-6-yl)-4-methoxybenzo[d]thiazole-6-carboxylic Acid] | 100 to 1000
4 | O=C(O)c1cccc(C(=O)N2CCC3(CC2)CC(OCc2c(-c4c(Cl)cccc4Cl)noc2C2CC2)C3)c1 [Example 1] | > 1000
5 | (S)-2-(2-((5-cyclopropyl-3-(2,6-dichlorophenyl)isoxazol-4-yl)methoxy)-7-(fluromethyl)-6-azaspiro[3.4]octan-6-yl)-4-methoxybenzo[d]thiazole-6-carboxylic Acid [Example 20] | 100 to 1000
6 | Cn1c(C(=O)O)cc2cc(N3CCC4(CC(OCc5c(-c6c(Cl)cccc6Cl)noc5C5CC5)C4)C3)ccc21 (centres unmarked) [Example 32, 5-(2-((5-cyclopropyl-3-(2,6-dichlorophenyl)isoxazol-4-yl)methoxy)-6-azaspiro[3.4]octan-6-yl)-1-methyl-1H-indole-2-carboxylic Acid] | 100 to 1000
7 | O=C(O)c1ccc2nc(N3CC4CCC(OCc5c(-c6c(Cl)cccc6Cl)noc5C5CC5)CC4C3)sc2c1 (centres unmarked) [Example 25, 2-(5-((5-cyclopropyl-3-(2,6-dichlorophenyl)isoxazol-4-yl)methoxy)hexahydro-1H-isoindol-2(3H)-yl) benzo[d]thiazole-6-carboxylic Acid] | 100 to 1000
8 | O=C(O)c1ccc2nc(N3CCC(COCc4c(-c5c(Cl)cccc5Cl)noc4C4CC4)CC3)sc2c1 [Example 48] | 100 to 1000
9 | O=C(O)c1ccc2nc(N3CCC4(CC3)CC(OCc3c(-c5c(Cl)cccc5Cl)noc3C3CC3)C4)sc2c1 [Example 2, 2-(2((5-cyclopropyl-3-(2,6-dichlorophenyl)isoxazol-4-yl)methoxy)-7-azaspiro[3.5]nonan-7-yl)benzo[d]thiazole-6-carboxylic Acid] | < 100
10 | O=C(O)c1ccc2nc(N3CCc4cc(OCc5c(-c6ccccc6C(F)(F)F)noc5C5CC5)ccc4C3)sc2c1 [Example 43, 2-(6-((5-cyclopropyl-3-(2-trifluoromethylphenyl)isoxazol-4-yl)methoxy)-3,4-dihydroisoquinolin-2(1H)-yl) benzo[d]thiazole-6-carboxylic Acid] | < 100
11 | O=C(O)c1ccc2nc(N3CC4CC(OCc5c(-c6c(Cl)cccc6Cl)noc5C5CC5)CC4C3)sc2c1 (centres unmarked) [Example 26, 2-(5-((5-cyclopropyl-3-(2,6-dichlorophenyl)isoxazol-4-yl)methoxy)hexahydrocyclopenta[c]pyrrol-2(1H)-yl) benzo[d]thiazole-6-carboxylic Acid] | < 100
12 | O=C(O)c1ccc2nc(N3CCC4(CC(OCc5c(-c6ccccc6C(F)(F)F)noc5C5CC5)C4)C3)oc2c1 (centres unmarked) [Example 42, 2-(2-((5-cyclopropyl-3-(2-trifluoromethylphenyl)isoxazol-4-yl)methoxy)-6-azaspiro[3.4]octan-6-yl) benzo[d]oxazole-6-carboxylic Acid] | 100 to 1000
13 | O=C(O)c1ccc2nc(N3CC4(CC(OCc5c(-c6c(Cl)cccc6Cl)noc5C5CC5)C4)C[C@H]3CF)oc2c1 (stereo partly drawn) [Example 21, (S)-2-(2-((5-cyclopropyl-3-(2,6-dichlorophenyl)isoxazol-4-yl)methoxy)-7-(fluromethyl)-6-azaspiro[3.4]octan-6-yl) benzo[d]oxazole-6-carboxylic Acid] | 100 to 1000
14 | O=C(O)c1ccc2nc(N3CCC4(CC(OCc5c(-c6c(Cl)cccc6Cl)noc5C5CC5)C4)C3)oc2c1 (centres unmarked) [Example 14, 2-(2-((5-cyclopropyl-3-(2,6-dichlorophenyl)isoxazol-4-yl)methoxy)-6-azaspiro[3.4]octan-6-yl) benzo[d]oxazole-6-carboxylic Acid] | < 100
15 | O=C(O)c1ccc(N2CCC3(CC(OCc4c(-c5c(Cl)cccc5Cl)noc4C4CC4)C3)C2)cn1 (centres unmarked) [Example 45] | 100 to 1000
16 | O=C(O)c1ccc2nc(N3CC4CCCCC(C3)C4OCc3c(-c4c(Cl)cccc4Cl)noc3C3CC3)sc2c1 (centres unmarked) [Example 11, 2-(10-((5-cyclopropyl-3-(2,6-dichlorophenyl)isoxazol-4-yl)methoxy)-8-azabicyclo[4.3.1]decan-8-yl)benzo[d]thiazole-6-carboxylic Acid] | < 100
17 | O=C(O)c1ccc2nc(N3CCC4(CC(OCc5c(-c6c(F)cccc6F)noc5C5CC5)C4)C3)oc2c1 (centres unmarked) [Example 39, 2-(2-((5-cyclopropyl-3-(2,6-difluorophenyl)isoxazol-4-yl)methoxy)-6-azaspiro[3.4]octan-6-yl) benzo[d]oxazole-6-carboxylic Acid] | 100 to 1000
18 | O=C(O)c1ccc2nc(N3CCC4(CC(OCc5c(-c6c(Cl)cccc6Cl)noc5C5CC5)C4)C3)sc2c1 (centres unmarked) [Example 8, 2-(2-((5-cyclopropyl-3-(2,6-dichlorophenyl)isoxazol-4-yl)methoxy)-6-azaspiro[3.4]octan-6-yl)benzo[d]thiazole-6-carboxylic Acid] | < 100
19 | O=C(O)c1ccc2nc(N3CC4(CC(OCc5c(-c6c(Cl)cccc6Cl)noc5C5CC5)C4)C[C@H]3CF)sc2c1 (stereo partly drawn) [Example 16, (S)-2-(2-((5-5-cyclopropyl-3-(2,6-dichlorophenyl)isoxazol-4-yl)methoxy)-7-(fluromethyl)-6-azaspiro[3.4]octan-6-yl) benzo[d]thiazole-6-carboxylic Acid] | 100 to 1000
20 | O=C(O)c1cccc(N2CCC3(CC(OCc4c(-c5c(Cl)cccc5Cl)noc4C4CC4)C3)C2)c1 (centres unmarked) [Example 10, 3-(2-((5-cyclopropyl-3-(2,6-dichlorophenyl)isoxazol-4-yl)methoxy)-6-azaspiro[3.4]octan-6-yl)benzoic Acid] | 100 to 1000
